Source: patent US9079895B2, “Morpholino compounds, uses and methods” (University of Dundee, priority 2012, dated 2015)

How the values were obtained:
Settings in all cases: average of at least two experiments
[1] = molecular target: Alpha1B adrenergic receptor (Homo sapiens (Human), UniProt P35368); assay: Secondary radioligand binding assay, Alpha1B; parameters: key to Ki Alpha1B: “—” indicates that a binding interaction was not detected
Description: 1. Secondary Radioligand Binding Assays The detailed experimental protocols for the radioligand and functional receptor assays are available on the NIMH PDSP website at http://pdsp.med.unc.edu/UNC-CH %20Protocol %20Book.pdf. Raw data (dpm) representing total radioligand binding (i.e. specific+non-specific binding) are plotted as a function of the logarithm of the molar concentration of the competitor (i.e. test or reference compound). […] C. Adrenergic Receptors: α1A, α1B, α2A, α2B, α2C, β1, β2, β3 Assay Buffers: For α1 receptors, α1 Binding Buffer (20 mM Tris-HCl, 145 mM NaCl, pH 7.4); for α2 receptors, α2 Binding Buffer (50 mM Tris-HCl, 5 mM MgCl2, pH 7.7); for β receptors, β Binding Buffer (50 mM Tris-HCl, 3 mM MnCl2, pH 7.7) Membrane Fraction Source: Transiently or stably transfected cell lines (e.g. HEK293, COS, CHO, NIH3T3) Protocol adapted from Arango et al. […] (1990), Gen. Psychiatry, 47: 1038-1047. The method is carried out in the manner described for the serotonin receptor assay above, except where described below. Eleven dilutions (5× assay concentration) of the test and reference (see Table 20) compounds are prepared in the appropriate buffer by serial dilution, as previously described. Radioligand is diluted to five times the assay concentration (see Table 21) in the appropriate buffer. […] Four rapid 500-μl washes are performed with chilled distilled water (for α1 and β receptors) or 0.1% polyethyleneimine (for α2 receptors) to reduce non-specific binding. Filters are placed in 6 ml scintillation tubes and allowed to dry overnight and the samples are treated to obtain data as described above. [table]

dopamine D3 receptor = dopamine D3 receptor (Homo sapiens (Human), UniProt P35462); assay: Secondary radioligand binding assay, D3; parameters: key to Ki D3: “—” indicates that a binding interaction was not detected
Description: (§1) 1. Secondary Radioligand Binding Assays
(§2) The detailed experimental protocols for the radioligand and functional receptor assays are available on the NIMH PDSP website at http://pdsp.med.unc.edu/UNC-CH %20Protocol %20Book.pdf.
(§3) Radioligand is diluted to five times the assay concentration (see Table 18) in Standard Binding Buffer. Typically, the assay concentration of radioligand is a value between one half the KD and the KD of a particular radioligand at its target. 50 μl aliquots of radioligand are dispensed into the wells of a 96-well plate containing 100 μl of Standard Binding Buffer. Then, duplicate 50 μl aliquots of the test and reference compound dilutions are added.
(§4) The 250 μl reactions are incubated at room temperature and shielded from light (to prevent photolysis of light-sensitive ligands) for 1.5 hours, then harvested by rapid filtration onto Whatman GF/B glass fiber filters pre-soaked with 0.3% polyethyleneimine using a 96-well Brandel harverster. Four rapid 500 μl washes are performed with chilled Standard Binding Buffer to reduce non-specific binding. Filters are placed in 6 ml scintillation tubes and allowed to dry overnight. The next day, 4 ml of EcoScint scintillation cocktail (National Diagnostics) are added to each tube. The tubes are capped, labeled, and counted by liquid scintillation counting. […] The filter mats are dried, then scintillant is melted onto the filters and the radioactivity retained on the filters is counted in a Microbeta scintillation counter.
(§5) Raw data (dpm) representing total radioligand binding (i.e. specific+non-specific binding) are plotted as a function of the logarithm of the molar concentration of the competitor (i.e. test or reference compound).
(§6) B. Dopamine Receptors: D1, D2, D3, D4, D5 Assay Buffers: Dopamine Binding Buffer (50 mM NaCl, 50 mM HEPES-HCl, 5 mM MgCl2, 0.5 mM EDTA, pH 7.4) Membrane Fraction Source: Transiently or stably transfected cell lines (e.g. HEK293, COS, CHO, NIH3T3)
(§7) The method is carried out in the manner described for the serotonin receptor assay above. Eleven dilutions (5× assay concentration) of the test and reference (see Table 19) compounds are prepared in Dopamine Binding Buffer by serial dilution, as previously described. Radioligand is diluted to five times the assay concentration (see Table 20) in Dopamine Binding Buffer.

dopamine D5 receptor = dopamine D5 receptor (Homo sapiens (Human), UniProt P21918); assay: Secondary radioligand binding assay, D5; parameters: key to Ki D5: “—” indicates that a binding interaction was not detected
Description: as §1, §2, §3, §4, §5, §6, §7

5HT7 receptor = 5HT7 receptor (Homo sapiens (Human), UniProt P34969); assay: Secondary radioligand binding assay, 5HT7; parameters: key to Ki 5HT7: “—” indicates that a binding interaction was not detected;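 further: competition of test compound with radioligand for binding to membranes from transfected cell lines, 1.5 h incubation at room temperature, filter-bound radioactivity read by liquid scintillation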
5HT5 receptor = 5HT5 receptor (Homo sapiens (Human), UniProt P47898); assay: Secondary radioligand binding assay, 5HT5; parameters: key: “—” indicates that a binding interaction was not detected;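 further: competitive radioligand displacement on membranes from transfected cell lines, incubated at room temperature in the dark, filter-retained radioactivity counted by liquid scintillation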
5HT2b receptor = 5HT2b receptor (Homo sapiens (Human), UniProt P41595); assay: Secondary radioligand binding assay, 5HT2b; parameters: key to Ki 5HT2b: “—” indicates that a binding interaction was not detected;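 further: competition binding against a radioligand on membranes from transfected cell lines, 1.5 h incubation at room temperature, filter-retained radioactivity counted by liquid scintillation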
dopamine D1 receptor = dopamine D1 receptor (Homo sapiens (Human), UniProt P21728); assay: Secondary radioligand binding assay, D1; parameters: key to Ki D1: “—” indicates that a binding interaction was not detected
Description: as §1, §2, §3, §4, §5, §6, §7

5HT1d receptor = 5HT1d receptor (Homo sapiens (Human), UniProt P28221); assay: Secondary radioligand binding assay, 5HT1d; parameters: key to Ki 5HT1d: “—” indicates that a binding interaction was not detected;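 further: competition binding against a radioligand on membranes from transfected cell lines, 1.5 h at room temperature, filter-retained radioactivity counted by liquid scintillation, total binding plotted versus log competitor concentration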
5HT3 receptor = 5HT3 receptor (Homo sapiens (Human), UniProt P46098); assay: Secondary radioligand binding assay, 5HT3; parameters: key: “—” indicates that a binding interaction was not detected;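 further: radioligand competition binding on membranes from transfected cell lines, 1.5 h incubation at room temperature, filter-retained radioactivity measured by liquid scintillation counting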
5HT1e receptor = 5HT1e receptor (Homo sapiens (Human), UniProt P28566); assay: Secondary radioligand binding assay, 5HT1e; parameters: key: “—” indicates that a binding interaction was not detected;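 further: competition binding against a radioligand on membranes from transfected cell lines, 1.5 h at room temperature, bound radioactivity counted by liquid scintillation after filtration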
5HT6 receptor = 5HT6 receptor (Homo sapiens (Human), UniProt P50406); assay: Secondary radioligand binding assay, 5HT6; parameters: key: “—” indicates that a binding interaction was not detected;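 further: competition displacement of radioligand from membranes of transfected cell lines expressing the receptor, 1.5 h at room temperature, bound radioactivity counted by scintillation after filtration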
5HT6 receptor, sequence (P50406 whole entry): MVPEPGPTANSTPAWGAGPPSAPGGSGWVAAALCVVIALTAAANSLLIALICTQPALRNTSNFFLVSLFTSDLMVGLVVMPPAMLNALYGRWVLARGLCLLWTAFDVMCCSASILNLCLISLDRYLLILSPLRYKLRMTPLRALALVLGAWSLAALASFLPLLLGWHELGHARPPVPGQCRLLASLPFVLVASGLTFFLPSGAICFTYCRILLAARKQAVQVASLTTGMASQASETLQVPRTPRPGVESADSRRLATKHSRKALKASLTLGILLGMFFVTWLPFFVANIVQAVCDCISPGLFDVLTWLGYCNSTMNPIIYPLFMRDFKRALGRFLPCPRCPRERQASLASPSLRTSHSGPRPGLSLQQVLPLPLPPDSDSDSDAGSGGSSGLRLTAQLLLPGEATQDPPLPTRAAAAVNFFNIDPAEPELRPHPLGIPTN

dopamine D1 receptor, sequence (P21728 whole entry): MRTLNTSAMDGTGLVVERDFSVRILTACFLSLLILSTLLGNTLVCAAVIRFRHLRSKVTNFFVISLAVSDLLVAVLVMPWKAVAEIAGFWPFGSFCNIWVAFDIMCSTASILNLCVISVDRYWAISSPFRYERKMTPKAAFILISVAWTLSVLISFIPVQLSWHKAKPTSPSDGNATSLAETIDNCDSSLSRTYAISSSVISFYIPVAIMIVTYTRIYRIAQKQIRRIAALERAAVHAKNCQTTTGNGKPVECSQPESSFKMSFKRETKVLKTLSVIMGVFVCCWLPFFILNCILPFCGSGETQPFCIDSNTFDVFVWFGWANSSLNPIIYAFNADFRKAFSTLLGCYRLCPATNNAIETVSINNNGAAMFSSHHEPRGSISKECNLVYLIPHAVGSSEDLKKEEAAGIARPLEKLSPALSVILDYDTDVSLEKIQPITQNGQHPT
5HT7 receptor, sequence (P34969 whole entry): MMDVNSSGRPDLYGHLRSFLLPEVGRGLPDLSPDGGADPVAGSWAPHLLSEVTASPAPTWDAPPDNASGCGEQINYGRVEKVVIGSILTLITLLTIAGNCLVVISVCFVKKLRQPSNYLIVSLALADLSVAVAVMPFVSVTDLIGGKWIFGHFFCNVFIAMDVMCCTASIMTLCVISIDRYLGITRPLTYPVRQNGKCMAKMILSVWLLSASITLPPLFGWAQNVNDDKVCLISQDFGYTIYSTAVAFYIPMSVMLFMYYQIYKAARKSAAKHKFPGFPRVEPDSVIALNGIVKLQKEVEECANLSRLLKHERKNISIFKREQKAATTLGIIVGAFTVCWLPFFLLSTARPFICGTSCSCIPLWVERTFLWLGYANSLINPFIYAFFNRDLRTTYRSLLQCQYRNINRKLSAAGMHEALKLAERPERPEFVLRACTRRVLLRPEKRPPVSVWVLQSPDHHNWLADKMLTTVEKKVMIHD
5HT5 receptor, sequence (P47898 whole entry): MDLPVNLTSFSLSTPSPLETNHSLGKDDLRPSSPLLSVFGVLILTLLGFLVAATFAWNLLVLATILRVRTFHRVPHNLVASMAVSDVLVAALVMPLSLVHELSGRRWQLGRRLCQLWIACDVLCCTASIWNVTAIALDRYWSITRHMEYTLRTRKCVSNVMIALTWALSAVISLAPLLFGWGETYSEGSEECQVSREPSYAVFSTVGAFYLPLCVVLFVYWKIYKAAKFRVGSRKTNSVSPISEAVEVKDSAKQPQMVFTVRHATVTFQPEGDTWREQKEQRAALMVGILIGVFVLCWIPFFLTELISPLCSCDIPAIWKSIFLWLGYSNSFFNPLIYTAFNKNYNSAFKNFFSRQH
5HT1d receptor, sequence (P28221 whole entry): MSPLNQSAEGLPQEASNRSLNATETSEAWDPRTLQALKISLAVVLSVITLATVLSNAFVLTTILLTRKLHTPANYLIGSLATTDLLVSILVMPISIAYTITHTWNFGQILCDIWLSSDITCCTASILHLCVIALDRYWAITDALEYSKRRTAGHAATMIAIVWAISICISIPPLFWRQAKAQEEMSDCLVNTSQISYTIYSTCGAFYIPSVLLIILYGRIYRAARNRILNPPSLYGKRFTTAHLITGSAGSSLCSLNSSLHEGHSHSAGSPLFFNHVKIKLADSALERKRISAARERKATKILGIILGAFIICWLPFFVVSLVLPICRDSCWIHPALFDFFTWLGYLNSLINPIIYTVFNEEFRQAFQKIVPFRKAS
5HT1e receptor, sequence (P28566 whole entry): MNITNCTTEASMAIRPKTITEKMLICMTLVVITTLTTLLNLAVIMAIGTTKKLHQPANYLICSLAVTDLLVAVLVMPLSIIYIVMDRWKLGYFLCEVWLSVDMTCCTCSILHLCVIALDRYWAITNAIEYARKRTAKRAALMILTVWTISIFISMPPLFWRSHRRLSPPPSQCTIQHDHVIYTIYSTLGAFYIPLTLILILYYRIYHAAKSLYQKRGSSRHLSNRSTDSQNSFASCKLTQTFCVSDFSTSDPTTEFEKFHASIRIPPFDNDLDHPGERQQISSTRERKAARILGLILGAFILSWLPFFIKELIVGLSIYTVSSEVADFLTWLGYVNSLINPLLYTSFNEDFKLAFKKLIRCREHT
Alpha1B adrenergic receptor, sequence (P35368 whole entry): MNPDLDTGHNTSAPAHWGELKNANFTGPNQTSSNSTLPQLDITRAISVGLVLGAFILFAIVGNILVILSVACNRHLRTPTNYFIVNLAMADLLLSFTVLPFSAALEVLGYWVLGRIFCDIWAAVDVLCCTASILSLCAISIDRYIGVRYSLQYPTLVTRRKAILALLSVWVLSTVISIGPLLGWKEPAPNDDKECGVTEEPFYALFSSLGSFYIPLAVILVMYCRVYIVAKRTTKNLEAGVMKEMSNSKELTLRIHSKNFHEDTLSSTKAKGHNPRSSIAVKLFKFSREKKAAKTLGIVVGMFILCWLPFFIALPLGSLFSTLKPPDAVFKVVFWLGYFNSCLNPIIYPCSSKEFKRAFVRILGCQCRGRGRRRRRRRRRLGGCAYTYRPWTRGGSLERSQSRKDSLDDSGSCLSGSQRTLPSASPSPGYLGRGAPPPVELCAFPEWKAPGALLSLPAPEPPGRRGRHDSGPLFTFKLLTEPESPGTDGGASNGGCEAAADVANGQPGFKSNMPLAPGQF
dopamine D3 receptor, sequence (P35462 whole entry, species assumed): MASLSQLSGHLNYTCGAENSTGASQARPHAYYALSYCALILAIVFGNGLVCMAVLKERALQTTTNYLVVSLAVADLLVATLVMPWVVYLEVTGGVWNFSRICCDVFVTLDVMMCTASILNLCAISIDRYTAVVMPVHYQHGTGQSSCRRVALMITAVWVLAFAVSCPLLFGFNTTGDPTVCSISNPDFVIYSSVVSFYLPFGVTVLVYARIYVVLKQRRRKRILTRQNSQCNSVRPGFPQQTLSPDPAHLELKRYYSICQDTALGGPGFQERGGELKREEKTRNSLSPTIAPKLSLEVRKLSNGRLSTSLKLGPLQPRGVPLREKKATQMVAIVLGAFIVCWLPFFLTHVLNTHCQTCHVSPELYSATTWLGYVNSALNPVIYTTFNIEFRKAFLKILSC
dopamine D5 receptor, sequence (P21918 whole entry): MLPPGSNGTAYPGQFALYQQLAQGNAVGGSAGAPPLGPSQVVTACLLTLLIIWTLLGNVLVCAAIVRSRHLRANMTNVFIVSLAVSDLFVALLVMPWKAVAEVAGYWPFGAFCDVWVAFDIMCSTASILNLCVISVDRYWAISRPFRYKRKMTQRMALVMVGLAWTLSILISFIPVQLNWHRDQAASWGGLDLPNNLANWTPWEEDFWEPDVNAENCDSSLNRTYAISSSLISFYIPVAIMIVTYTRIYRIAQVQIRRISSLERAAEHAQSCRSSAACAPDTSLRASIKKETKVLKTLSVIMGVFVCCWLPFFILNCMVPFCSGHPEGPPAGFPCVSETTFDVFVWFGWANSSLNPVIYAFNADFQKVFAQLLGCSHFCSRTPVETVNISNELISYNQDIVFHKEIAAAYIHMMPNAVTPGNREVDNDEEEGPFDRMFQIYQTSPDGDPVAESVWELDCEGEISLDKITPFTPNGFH
5HT2b receptor, sequence (P41595 whole entry): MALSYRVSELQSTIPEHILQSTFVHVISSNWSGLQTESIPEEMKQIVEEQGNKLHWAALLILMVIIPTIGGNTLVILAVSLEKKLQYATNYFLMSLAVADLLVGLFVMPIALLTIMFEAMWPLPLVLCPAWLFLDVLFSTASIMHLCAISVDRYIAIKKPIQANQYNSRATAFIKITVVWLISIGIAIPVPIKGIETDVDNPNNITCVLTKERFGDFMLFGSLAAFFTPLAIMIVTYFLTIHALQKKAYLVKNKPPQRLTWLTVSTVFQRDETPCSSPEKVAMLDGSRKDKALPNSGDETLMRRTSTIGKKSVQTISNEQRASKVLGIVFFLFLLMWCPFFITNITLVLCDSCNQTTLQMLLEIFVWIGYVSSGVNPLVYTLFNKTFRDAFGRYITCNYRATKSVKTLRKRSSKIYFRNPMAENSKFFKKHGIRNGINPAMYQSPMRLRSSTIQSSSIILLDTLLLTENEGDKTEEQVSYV
5HT3 receptor, sequence (P46098 24-478): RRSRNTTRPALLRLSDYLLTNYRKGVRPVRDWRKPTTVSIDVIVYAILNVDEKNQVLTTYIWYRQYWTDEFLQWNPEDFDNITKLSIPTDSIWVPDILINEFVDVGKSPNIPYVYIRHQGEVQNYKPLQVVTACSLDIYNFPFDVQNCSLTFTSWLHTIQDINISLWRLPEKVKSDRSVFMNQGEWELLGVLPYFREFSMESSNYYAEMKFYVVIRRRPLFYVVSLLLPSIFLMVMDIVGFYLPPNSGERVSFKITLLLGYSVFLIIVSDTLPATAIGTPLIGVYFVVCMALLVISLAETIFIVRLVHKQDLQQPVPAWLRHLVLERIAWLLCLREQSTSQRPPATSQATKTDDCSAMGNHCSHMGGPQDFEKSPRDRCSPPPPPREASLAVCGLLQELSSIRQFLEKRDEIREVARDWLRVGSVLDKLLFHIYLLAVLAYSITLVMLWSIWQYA

Compound | Ki Alpha1B [1] | Ki D3 (dopamine D3 receptor) | Ki D5 (dopamine D5 receptor) | Ki 5HT7 (5HT7 receptor) | Ki 5HT5 (5HT5 receptor) | Ki 5HT2b (5HT2b receptor) | Ki D1 (dopamine D1 receptor) | Ki 5HT1d (5HT1d receptor) | Ki 5HT3 (5HT3 receptor) | Ki 5HT1e (5HT1e receptor) | Ki 5HT6 (5HT6 receptor) | Ki (dopamine D1 receptor) [nM] | Ki (5HT2b receptor) [nM]
Cc1ncccc1OC[C@H]1CN(CC(=O)N2c3ccccc3C[C@H]2C)CCO1 [Compound 63] | — | — | — | — | — | — | — | — | — | — | — |  | 
CC1Cc2ccccc2N1C(=O)CN1CCO[C@H](COc2cccc(Cl)c2)C1 (stereo partly shown) [Compound 64] | — | — | — | — | — |  | — | — | — | — | — |  | 441
CC1Cc2ccccc2N1C(=O)CN1CCO[C@@H](COc2cccc(Cl)c2)C1 (stereo partly shown) [Compound 65] | — | — | — | — | — |  | — | — | — | — | — |  | 333
Cc1ccccc1OC[C@H]1CN(CC(=O)N2c3ccccc3CC2C)CCO1 (stereo partly shown) [Compound 66] | — | — | — | — | — |  | — | — | — | — | — |  | 770

More lines, main results first:

Ki Alpha1B [1] | Ki D3 (dopamine D3 receptor) | Ki D5 (dopamine D5 receptor) | Ki 5HT7 (5HT7 receptor) | Ki 5HT5 (5HT5 receptor) | Ki 5HT2b (5HT2b receptor) | Ki D1 (dopamine D1 receptor) | Ki 5HT1d (5HT1d receptor) | Ki 5HT3 (5HT3 receptor) | Ki 5HT1e (5HT1e receptor) | Ki 5HT6 (5HT6 receptor) | Ki (dopamine D1 receptor) [nM] | Compound | Ki (5HT2b receptor) [nM]
— | — | — | — | — | — | — | — | — | — | — |  | C[C@@H]1Cc2ccccc2N1C(=O)CN1CCO[C@@H](COc2ccncc2)C1 [Compound 67] | 
— | — | — | — | — | — | — | — | — | — | — |  | CC1Cc2ccccc2N1C(=O)CN1CCO[C@@H](COc2ccncc2)C1 (stereo partly shown) [Compound 68] | 
— | — | — | — | — | — | — | — | — | — | — |  | CC1Cc2ccccc2N1C(=O)CN1CCO[C@@H](COc2ccccn2)C1 (stereo partly shown) [Compound 69] | 
— | — | — | — | — |  |  | — | — | — | — | > 10000 | Cc1ccnc(OC[C@H]2CN(CC(=O)N3c4ccccc4CC3C)CCO2)c1 (stereo partly shown) [Compound 70] | 3460
